“And” between values parts separate entries of the source, which are not always exact repeats. Identical values can stand only once.
Columns and labels:
[1] = Distribution in brain after ip administration; assay type: in vivo, rat; details: brain; for concentration in brain (single sample): individual samples 1-3
Experimental: (§1) For the pharmacokinetic study, a group of 56 adult male rats (Wistar, 220–250 g, […]) were used in the experiment. Animals were purchased from the Animal House of the Faculty of Pharmacy of Jagiellonian University Medical College, Krakow, Poland. […] These were then given through an intraperitoneally injections (ip) at a dose of 0.3 mg/kg and 0.4 mg/kg, respectively. Blood samples were collected at 0 min (predose), 5 min, 15 min, 30 min, 60 min, 120 min, and 240 min after compound administration. Blood and brain samples were collected under general anesthesia induced by ip injections of 50 mg/kg ketamine plus 8 mg/kg xylazine. Blood samples were taken in heparinized tubes and immediately centrifuged at 3500 rpm for 10 min, and plasma was collected. Brain and plasma samples were immediately frozen at – 80 ℃ for LC/MS/MS analysis. All experimental procedures were carried out according to EU Directive 2010/63/EU and approved by the I Local Ethics Committee for Animal Experiments of the Jagiellonian University in Krakow, Poland (No. 94/2016).
(§2) The pharmacokinetic parameters were calculated using a non-compartmental approach from the average concentration values, using Phoenix WinNonlin software (Certara, Princeton, NJ 08540 USA). The first-order elimination rate constant (λz) was calculated by linear regression of time versus log concentration. Next, the area under the mean plasma and the concentration in the brain versus the time curve (AUC0→t) were estimated using the log-linear trapezoidal rule (Eq. 1), where Cn is the concentration of the last sampling of each compound1 AUC0→t=∑i=1n(Ci+Ci+1)/2·ti+1-ti+Cn/λz.
(§3) The quantification of compounds in plasma and brain samples was performed using the Sciex API 3200 triple quadrupole mass spectrometer (Concord, Ontario, Canada) equipped with an electrospray (ESI) ionization interface. This instrument was coupled to an Elite LaChrom (Hitachi, USA) HPLC system. Data acquisition and processing were performed using Sciex Analyst 1.5.2 data collection and integration software. After preparation, the samples were injected (20 µL) onto XBridge C18 (2.1 mm × 30 mm, 3.5 μm, Waters, Milford, Massachusetts, USA) analytical column. The mobile phase consisted of 0.1% formic acid in acetonitrile (A) and 0.1% formic acid in water (B) was delivered in a gradient elution starting with 90% of eluent B, increasing for 2 min to 90% of eluent A, maintained for 3 min, and then returned for 5 min to 90% of eluent B, and maintained 90% of eluent B during 5 min at a flow rate of 300 µL/min. The total analysis time was 10 min. […] The ion spray source settings were as follows: spray voltage: 5.5 kV, heater temperature: 400 °C, curtain gas: 10 psi, source gas 1: 20 psi, and source gas 2: 20 psi.
Further dilutions were performed using the same solvent to prepare working standard solutions of the analyte at the following concentrations: 0.025, 0.05, 0.1, 0.25, 0.5, 1.0, 2.5, 5.0, 10, 25, and 50 µg/mL for calibration curve samples (CC) and 0.025, 0.075, 2.2, and 4.5 µg/mL for quality control samples (QC). To prepare samples for calibration curve or quality control samples, 45 µL of the matrix (plasma or brain homogenate) was added with 5 µL of internal standard solution (1 µg/mL) obtaining the final concentration of 100 ng/mL and 5 µL of standard working solutions at the needed CC or QC concentration levels. After the addition of the standard solution, the samples were mixed and purified.
A sample volume of 50 µL of plasma or brain homogenate was transferred to the clean Eppendorf tube and spiked with 5 µL of IS solution (1 µg/mL) obtaining the final concentration of 100 ng/mL. After 5 min of mixing (1500 rpm) proteins were precipitated using 200 µL ACN. After 10 min of sample shaking (1500 rpm), the incubation step was performed (10 min, 4 °C). The samples were then centrifuged (10,000 rpm, 10 min, 4 °C) and the supernatant was transferred to chromatographic vials for LC/MS/MS analysis.

[2] = Pharmacokinetics in plasma after ip administration; assay type: in vivo, rat; details: plasma; for concentration in plasma (single sample): individual samples 1-3
Experimental: as §1, with “Poland. During the habituation period, the groups of 4 rats were kept in a plastic cage at a controlled room temperature (22 ± 2 ℃), humidity (55 ± 10%), full-spectrum cold white light (350–400 lx), in 12 h light/dark cycles (the lights on at 7:00 am, and off at 19:00 pm), and had free access to standard laboratory pellet and tap water.” for “Poland.”
as §2
The area under the first-moment curve (AUMC0→t) was estimated by calculating of the total area under the first-moment curve using Eq. 2, where tn is the time of last sampling2 AUMC0→t=∑i=1n(ti·Ci+ti+1·Ci+1)/2·ti+1-ti+(tn·Cn)/λz+Cn/λz2.
Mean residence time (MRT, Eq. 3) was calculated as3 MRT=AUMC0→t/AUC0→t.
Total clearance (ClT, Eq. 4) was calculated as4 C1T=F·Di.p./AUC0→t.
as §3
Further dilutions were performed using the same solvent to prepare working standard solutions of the analyte at the following concentrations: 0.025, 0.05, 0.1, 0.25, 0.5, 1.0, 2.5, 5.0, 10, 25, and 50 µg/mL for calibration curve samples (CC) and 0.025, 0.075, 2.2, and 4.5 µg/mL for quality control samples (QC). […]

α2A-adrenoceptor = target: T1, α2A-adrenoceptor (Homo sapiens, UniProt P08913); assay: Intrinsic activity, Tango beta-lactamase reporter assay; assay type: cell-based; details: ADRAA2A
T1 sequence (P08913 1-465): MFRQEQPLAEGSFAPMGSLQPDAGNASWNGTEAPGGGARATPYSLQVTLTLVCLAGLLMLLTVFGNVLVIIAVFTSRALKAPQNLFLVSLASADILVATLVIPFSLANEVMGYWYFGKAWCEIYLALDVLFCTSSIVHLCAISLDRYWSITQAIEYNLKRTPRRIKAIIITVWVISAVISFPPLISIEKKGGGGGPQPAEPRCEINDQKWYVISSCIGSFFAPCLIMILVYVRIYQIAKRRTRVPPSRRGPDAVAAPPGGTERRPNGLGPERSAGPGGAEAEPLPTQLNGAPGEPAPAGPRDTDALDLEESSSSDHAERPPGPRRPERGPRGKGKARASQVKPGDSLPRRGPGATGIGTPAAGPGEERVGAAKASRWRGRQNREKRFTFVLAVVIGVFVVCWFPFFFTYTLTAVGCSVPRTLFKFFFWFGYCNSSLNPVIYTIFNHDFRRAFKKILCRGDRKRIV
Experimental: The intrinsic activity at α2A-adrenoceptor was assessed by the Tango assay technology that uses a mammalian-optimized beta-lactamase (bla) reporter gene combined with an FRET-enabled substrate to provide reliable and sensitive detection in cells. Cells are loaded with an engineered fluorescent substrate containing two fluorophores, coumarin, and fluorescein. In the absence of bla expression, the substrate molecule remains intact. In this state, excitation of the coumarin results in a transfer of fluorescence resonance energy to the fluorescein moiety and emission of green fluorescent light. However, in the presence of bla expression, the substrate is cleaved, separating the fluorophores and disrupting energy transfer. Excitation of the coumarin in the presence of bla enzyme activity results in a blue fluorescence signal.
Intrinsic activity assay was performed according to the manufacturer of the assay kit (Invitrogen, Life Technologies). Cells were harvested and resuspended in an assay medium at a density of 312,500 cells/ml. 32 μL per well of cell suspension was added to the test compound wells, the unstimulated control wells, and the stimulated control wells, and incubated for 16–24 h. To perform an agonist assay, 8 μL of 5 × of agonist in the assay medium was added to the cells. […] Then, the agonist and antagonist plates were incubated in a humidified incubator at 37 °C/5% CO2 for 5 h. After the incubation, 8 μL of LiveBLAzer™-FRET B/G substrate mixture (CCF4-AM) was loaded into cells in the absence of direct strong lighting, covered, and incubated at room temperature for 2 h.

For `Cl.N=C(N)N/N=C/c1c(Cl)cc(O)cc1Cl` [HGB], the “concentration in brain (single sample)” value ([1]; 5 min) was 14.9497 ng/g and 11.5414 ng/g and 13.5496 ng/g, the “concentration in brain (mean)” value ([1]; 5 min after administration) was 13.3469 ng/g and the “concentration in brain (single sample)” value ([1]; 15 min) was 59.5505 ng/g and 64.4857 ng/g and 70.3065 ng/g. The “concentration in brain (mean)” value ([1]; 15 min after administration) was 64.7809 ng/g, the “concentration in brain (single sample)” value ([1]; 30 min) was 29.8349 ng/g and 23.7225 ng/g and 18.0636 ng/g and the “concentration in brain (mean)” value ([1]; 30 min after administration) was 23.8737 ng/g. The “concentration in brain (single sample)” value ([1]; 60 min) was 5.077 ng/g and 3.611 ng/g and 4.9468 ng/g, the “concentration in brain (mean)” value ([1]; 60 min after administration) was 4.545 ng/g and the “concentration in brain (single sample)” value ([1]; 120 min) was 3.263 ng/g and 4.746 ng/g and 3.8221 ng/g. The “concentration in brain (mean)” value ([1]; 120 min after administration) was 3.944 ng/g, the “concentration in brain (single sample)” value ([1]; 240 min) was 2.689 ng/g and 4.759 ng/g and 2.17 ng/g and the “concentration in brain (mean)” value ([1]; 240 min after administration) was 3.206 ng/g. The “concentration in plasma (single sample)” value ([2]; 5 min) was 41.279 ng/mL and 54.6155 ng/mL and 66.8757 ng/mL, the “concentration in plasma (mean)” value ([2]; 5 min after administration) was 54.2567 ng/mL and the “concentration in plasma (single sample)” value ([2]; 15 min) was 105.888 ng/mL and 100.591 ng/mL and 95.109 ng/mL. The “concentration in plasma (mean)” value ([2]; 15 min after administration) was 100.53 ng/mL, the “concentration in plasma (single sample)” value ([2]; 30 min) was 16.0042 ng/mL and 23.9125 ng/mL and 20.5783 ng/mL and the “concentration in plasma (mean)” value ([2]; 30 min after administration) was 20.165 ng/mL. For the same compound, the “concentration in plasma (single sample)” value ([2]; 60 min) was 44.699 ng/mL and 41.9435 ng/mL and 39.1715 ng/mL, the “concentration in plasma (mean)” value ([2]; 60 min after administration) was 41.938 ng/mL and the “concentration in plasma (single sample)” value ([2]; 120 min) was 10.1897 ng/mL and 6.772 ng/mL and 9 ng/mL. The “concentration in plasma (mean)” value ([2]; 120 min after administration) was 8.6536 ng/mL, the “concentration in plasma (single sample)” value ([2]; 240 min) was 5.591 ng/mL and 8.595 ng/mL and 5.3874 ng/mL and the “concentration in plasma (mean)” value ([2]; 240 min after administration) was 6.524 ng/mL.
With `COC(=O)[C@@H]1[C@H]2C[C@H]3c4[nH]c5ccccc5c4CCN3C[C@@H]2CC[C@@H]1O` [Yohimbine] the “% of max response” value (α2A-adrenoceptor; antagonist vs brimonidine EC80, concentration 1e-11) was 99.193% and 99.631%, the “% of max response” value (α2A-adrenoceptor; antagonist vs brimonidine EC80, concentration 1e-10) was 89.6162% and the “% of max response” value (α2A-adrenoceptor; antagonist vs brimonidine EC80, concentration 1e-9) was 70.6442% and 68.4607%. For the same compound, the “% of max response” value (α2A-adrenoceptor; antagonist vs brimonidine EC80, concentration 1e-8) was 17.048% and 15.1589%, the “% of max response” value (α2A-adrenoceptor; antagonist vs brimonidine EC80, concentration 1e-7) was 6.64% and the “% of max response” value (α2A-adrenoceptor; antagonist vs brimonidine EC80, concentration 1e-6) was 8.3079%.
For `Brc1c(NC2=NCCN2)ccc2nccnc12` [brimonidine], the “% of max response” value (α2A-adrenoceptor; agonist, concentration 1e-11) was -0.4968% and 2.419% and -2.234% and 0.961%, the “% of max response” value (α2A-adrenoceptor; agonist, concentration 1e-10) was 2.567% and 0.2495% and -1.378% and 1.408% and the “% of max response” value (α2A-adrenoceptor; agonist, concentration 1e-9) was 4.21% and 2.461% and -0.5064% and 3.335%. The “% of max response” value (α2A-adrenoceptor; agonist, concentration 1e-8) was 48.0757% and 59.1796% and 30.9499% and 53.6276% and the “% of max response” value (α2A-adrenoceptor; agonist, concentration 1e-7) was 88.9964% and 81.4266%.
